One assay relates to TS cells (lung TICs). Nature of the assay: Intraperitoneal administration to NSG mice subcutaneously implanted with lung TICs. It is filed as in vivo. The conditions noted are these: FIDAS5 40 mg/kg i.p., three consecutive days, after 6 weeks. An excerpt: 5×10^5 single cells were mixed in a 1:1 mixture of serum free DMEM/F12 and Matrigel (BD) and injected subcutaneously into the flanks of 4-6 week old male and female NOD.Cg-Prkdc^scid Il2rg^tm1wjl SzJ (Jackson Laboratories). About 6 weeks later, or when tumor sizes exceed 2 cm in length, mice were sacrificed and tumors harvested for analysis. All animal experiments were approved by the Agency for Science Technology and Research Singapore—Biological Resource Centre. Mice were randomized by sex.
Since FIDAS5 appeared to more specifically disrupt the methionine cycle and inhibit cellular methylation activities compared to D9, it was sought to test whether its systemic delivery could impact the tumorigenic potential of TS cells. These highly tumorigenic cells were first subcutaneously implanted into NSG mice and FIDAS5 (40 mg/kg) or corn oil carrier was immediately administered via intraperitoneal injection for three consecutive days. After 6 weeks, mice transiently treated with FIDAS5 produced tumors that were much smaller than carrier-treated controls. […] To exclude the possibility of general cytotoxicity associated with the inhibitor on TS cells, TS cell-implanted NSG mice were treated with cisplatin (4 mg/kg), a frontline chemotherapeutic agent that broadly target bulk cancer cells in NSCLC tumors, in the same manner (FIG. 5i). […]

In assay [1] the test system is histone methylation in TS cells. As to the kind of experiment: Western blot of methylated histones in TS cells. As to conditions: TS cells exposed transiently (48 h) to inhibitor. It is filed as cell-based, human. The protocol:
1.5×10^6 cells were lysed in Llaemli-SDS buffer and then sonicated. Total protein concentration was measured by Bradford assay. Total cell lysates were separated by SDS-PAGE and transferred onto nitrocellulose, followed by blocking in 5% (v/v) milk in Tris-buffered saline in Tween 20, probing with the indicated antibodies and visualized by chemiluminescence (Roche). Primary antibodies used were anti-β-Actin (sc-47778), anti-GAPDH (sc-32233) from Santa Cruz: anti-GLDC (ab97625), anti-H3 (ab1791), anti-H3 (dimethylK36) (ab9049), anti-MAT2A (ab77471), anti-MTR (ab9209), anti-H3 (trimethylK79) (ab2621), anti-MTHFR (ab125707), anti-MTAP (ab ab55517) from Abcam; anti-H3(trimethyl K4) (39159), anti-H3(trimethyl K27)(39155), anti-H3(trimethylK36)(61101) and anti-H3(trimethylK9)(39765) from Active Motif; anti-β-catenin (BD610154) from BD Biosciences; anti-SHMT2 (HPA020549) and anti-SAHH (WH0000191M8) from Sigma; anti-Symmetric Di-Methyl Arginine Motif (13222) from CST.
To evaluate the methionine cycle as a therapeutic target in lung TICs, small molecule inhibitors that target enzymes within this pathway were employed, mimicking the effects of short-term methionine starvation (FIG. 5a). two inhibitors known to perturb methionine cycle activity and cellular methylation levels: 1) MAT2A inhibitor, FIDAS5; and 2) SAHH inhibitor, D9, which is an analog of DZNep. In a manner similar to amino acid starvation studies, TS cells were exposed transiently to the compounds for 48 h in culture and were immediately used for downstream tumorigenesis assays.

For assay [2], the system named is cancer cell lines with high or low MAT2A expression. As to the kind of experiment: Proliferation of cancer cell lines grown in FIDAS5 containing medium. The conditions noted are these: 10 uM. It is filed as cell-based. As to the method:
Cells were seeded into 96-well plates at a density of 2,000 cells/well for TS cells and 500 cells/well for Adh cells. The relative number of viable cells was determined by the quantification of ATP using the CellTiter-Glo Luminescent Cell Viability Assay (Promega) system.

The structures appear in SMILES notation.

Turning to `CNc1ccc(/C=C/c2c(F)cccc2Cl)cc1` [FIDAS5], the “tumor size vs carrier-treated controls” value in the assay with TS cells (lung TICs) is “much smaller”. Further, the histone methylation levels entry in assay [1] was “complete ablation”. Besides, the entries for the “growth upon FIDAS5 treatment” value in assay [2] (cancer cell lines expressing high MAT2A) and in assay [2] (cancer cell lines expressing low MAT2A) were “dramatically hampered in their growth” and “largely insensitive”, respectively.

The values are drawn from US11872230B2, “Method of treating a methionine-dependent cancer” (Agency for Science, Technology and Research, priority 2018, dated 2024).
